Reference: patent US8338367B2, “Fused heteroaryl diamide compounds useful as MMP-13 inhibitors” (Boehringer Ingelheim International GmbH, priority 2008, dated 2012)

Target: MMP13 (Homo sapiens, UniProt P45452)
Test: EnzoLyte 520 Generic MMP Assay Kit (FRET peptide substrate), MMP-13 inhibition
Assay type: biochemical
Excerpt: The EnzoLyte™ 520 Generic MMP Assay Kit (AnaSpec Inc.) can detect the activity of several MMPs including MMP-1, 2, 3, 7, 8, 9, 13, and 14. This kit uses a 5-FAM/QXL™ 520 fluorescence resonance energy transfer (FRET) peptide as an MMP substrate. In the intact FRET peptide, the fluorescence of 5-FAM is quenched by QXL™ 520. Upon cleavage into two separate fragments by MMPs, the fluorescence of 5-FAM is recovered, and can be monitored at excitation/emission wavelengths=490 nm/520 nm. The assays are performed in a convenient 96-well or 384-well microplate format.

SMILES	IC50 [nM]
CNC(=O)[C@@H](NC(=O)c1ccc(-c2ccc3nc(Cc4ccncc4)[nH]c3c2)o1)C1CCCCC1 [5-(2-Pyridin-4-ylmethyl-3H-benzimidazol-5-yl)-furan-2-carboxylic acid ((S)-cyclohexyl-methylcarbamoyl-methyl)-amide]	34
CNC(=O)[C@@H](NC(=O)c1ccc(-c2cc3[nH]ccc3cn2)o1)C1CCCCC1 [5-(1H-Pyrrolo[3,2-c]pyridin-6-yl)-furan-2-carboxylic acid ((S)-cyclohexyl-methylcarbamoyl-methyl)-amide]	103
CNC(=O)[C@@H](NC(=O)c1ccc(-c2ccc3cc(C(=O)N4CCN(C)CC4)[nH]c3c2)o1)C(C)C [5-[2-(4-Methyl-piperazine-1-carbonyl)-1H-indol-6-yl]-furan-2-carboxylic acid ((S)-2-methyl-1-methylcarbamoyl-propyl)-amide]	300
CNC(=O)[C@@H](NC(=O)c1ccc(-c2ccc3cc(C(=O)N4CCS(=O)(=O)CC4)[nH]c3c2)o1)C(C)C [5-[2-(1,1-Dioxo-λ^6-1-thiomorpholine-4-carbonyl)-1H-indol-6-yl]-furan-2-carboxylic acid ((S)-2-methyl-1-methylcarbamoyl-propyl)-amide]	200
CNC(=O)[C@@H](NC(=O)c1ccc(-c2ccc3cc(C(=O)N4CCOCC4)[nH]c3c2)o1)C(C)C [5-[2-(Morpholine-4-carbonyl)-1H-indol-6-yl]-furan-2-carboxylic acid ((S)-2-methyl-1-methylcarbamoyl-propyl)-amide]	415
CNC(=O)[C@@H](NC(=O)c1ccc(-c2ccc3cc[nH]c3c2)o1)C1CCCCC1 [5-(1H-Indol-6-yl)-furan-2-carboxylic acid ((S)-cyclohexyl-methylcarbamoyl-methyl)-amide]	290
CNC(=O)[C@@H](NC(=O)c1ccc(-c2ccc3nc[nH]c3c2)o1)C1CCCCC1 [5-(3H-Benzimidazol-5-yl)-furan-2-carboxylic acid ((S)-cyclohexyl-methylcarbamoyl-methyl)-amide]	270
CNC(=O)[C@@H](NC(=O)c1ccc(-c2ccc3cc(C(=O)N4CC(C)OC(C)C4)[nH]c3c2)o1)C(C)C (stereo partly drawn) [5-[2-(2,6-Dimethyl-morpholine-4-carbonyl)-1H-indol-6-yl]-furan-2-carboxylic acid ((S)-2-methyl-1-methylcarbamoyl-propyl)-amide]	65
CNC(=O)[C@@H](NC(=O)c1ccc(-c2ccc3cc(C(=O)N4CCOCC4)[nH]c3c2)o1)C1CCCCC1 [5-[2-(Morpholine-4-carbonyl)-1H-indol-6-yl]-furan-2-carboxylic acid ((S)-cyclohexyl-methylcarbamoyl-methyl)-amide]	340
